Like-named read-outs stand apart in the source and are kept apart here.
Key:
[1] = system: Escherichia coli (ATCC 25922); conditions: peptide alone; peptide concentration required to inhibit growth by 20% (so in the source)
Experimental: (§1) The N-terminus of the peptides were acetylated and the C-terminus was amidated. The kinked structure can rapidly reduce the alpha-helical content, thereby greatly reducing the toxicity of the peptide against host cells. In addition, because of the potential to show specificity for the Gram-negative bacterial membrane, Pro-mutants were prepared by site-directed mutagenesis. Using the prepared peptides, their MIC for the Gram-negative bacterium E. coli and the Gram-positive bacterium S. aureus and their hemolytic activity for host cells were examined (Table 1).
(§2) To measure the synergy between the membrane-activating peptides and the repositioning drug, a 10× compound was prepared, and then serially diluted ⅔-fold with distilled water. An MH broth (900 μl) was added to and mixed with the 10× compound (100 μl), and then 200 μL of the mixture was taken and added to a 96-well plate. E. coli cultured for one day was adjusted to 0.5 MCF using MCFarland, and diluted 10-fold, and then 10 μl of the dilution was added to each well of the plate (5×10^5 CFU/mL). After addition of the bacterial cells, plate was incubated at 37° C. for 18 hours, and then the OD value at UV-Vis (600 nm) was measured. Cell viability (%)=(OD600 of sample−OD600 of negative control)/(OD600 of positive control−OD600 of negative control)×100.

[2] = system: E. coli ATCC 25922
[3] = system: Staphylococcus aureus (ATCC 29213); experiment: MIC of peptide against S. aureus; type: cell-based; conditions: peptide alone
Experimental: as §1

[4] = system: E. coli ATCC 25922; experiment: Antibiotic interaction assay (Wimley), 2/3 broth microdilution: MIC alone, MIC of combination, FICI; type: cell-based; conditions: for MIC of combination (μM): antibiotic (colistin): colistin concentration in combination with labelled peptide; for MIC of peptide: peptide alone; for MIC: Escherichia coli, ATCC25922, 18 h; for MIC (μM) against E. coli ATCC, combination of two compounds / MIC (μM) against E. coli ATCC, combination of 3 compounds: concentration of labelled component; for MIC of combination (μM): antibiotic: concentration of labelled drug in combination with KL-L9P; for FICI of drug with KL-L9P / FICIKL-L9P / FICIantibiotic: labelled drug + KL-L9P
Experimental: Synergy was evaluated by an antibiotic interaction assay (Wimley, 2015) Using the method of Wimley (BBA, 2015, v. 1848(1), pp. 8-15), synergy between the membrane-activating peptide and an antibiotic was measured by an FICI value (FIG. 17). […] Thus, to accurately examine synergy, a ⅔ dilution method which observes MIC at denser concentration intervals is advantageous over a ½ dilution method in statistical terms. […] In the same manner, the MIC of an antibiotic or repositioning drug (second line) is measured. In the third line, the two compounds are mixed after putting half amount each, and the MIC thereof is measured.
A broth microdilution technique (⅔ dilution) was used together with an MH broth. E. coli treated with an antibiotic and the peptide was incubated in a 37° C. incubator for 18 hours.
as §2

[5] = Table 13, Lys-Ala scanning library
[6] = labelled peptide + colistin + linezolid
[7] = peptide concentration in combination with colistin
[8] = three compounds: labelled peptide + colistin + linezolid
[9] = Tables 19-23, read-out: MIC (μM) against E. coli ATCC, 1 compound alone
[10] = drug alone, <20% growth of positive control, read-out: MIC of antibiotic

KALKLLKKPLKLLK [KL-L2AL9P]
MIC [μM] Against E. coli [1]: 40 µM
FICI Against E. coli, Colistin & 1/2 MIC peptide ([2]; Table 15, Leu-Ala scanning): 0.74
FICI Against E. coli, Colistin & 1/4 MIC peptide ([2]; Table 15, Leu-Ala scanning): 0.61

KLLKLLKKLPKLLK [KL-L10P]
MIC [μM] Against E. coli [1]: 2.5 µM
MIC [μM] Against S. aureus [3]: 20 µM

LKKPLKLLKKPLKL [LK-L4PL11P]
MIC [μM] Against E. coli [1]: >40 µM
MIC [μM] Against S. aureus [3]: >40 µM

KLLKLLKKPLKLLA [KL-L9P/K14A]
FICI Against E. coli, Colistin & 1/2 MIC peptide [2, 5]: 0.66

KLLKLLKKPLKALK [KL-L9PL12A]
MIC [μM] Against E. coli [1]: 40 µM
FICI Against E. coli, Colistin & 1/2 MIC peptide ([2]; Table 15, Leu-Ala scanning): 0.74
FICI Against E. coli, Colistin & 1/4 MIC peptide ([2]; Table 15, Leu-Ala scanning): 0.61

KLLKLAKKPLKLLK [KL-L6AL9P]
MIC [μM] Against E. coli [1]: 89 µM

KLLKLLCKLCKLLK [7, 10 kink]
MIC of combination (μM): antibiotic (colistin) [4]: 0.081 µM
FICI of peptide with colistin ([4]; labelled peptide + colistin): 0.89
FICIPeptide ([4]; labelled peptide + colistin): 0.58
FICIcolistin / FICIantibiotic ([4]; labelled peptide + colistin): 0.31
FICI of peptide with colistin and linezolid [4, 6]: 1.1
FICIPeptide [4, 6]: 0.37
FICIcolistin [4, 6]: 0.33
FICIlinezolid [4, 6]: 0.37
MIC of peptide [4]: 1.1 µM
MIC of combination (μM): peptide [4, 7]: 0.63 µM
MIC of combination (μM): colistin [4, 8]: 0.081 µM
MIC of combination (μM): linezolid [4, 8]: 22 µM
MIC of combination (μM): peptide [4, 8]: 0.44 µM
MIC [μM] Against E. coli [1]: 1.1 µM

KLLKLLKKQLKLLK [KL L9Q]
MIC [μM] Against E. coli [1]: 1.25 µM

KLLKLLAKPLKLLK [KL-L9P/K7A]
FICI Against E. coli, Colistin & 1/2 MIC peptide [2, 5]: 0.86

Mtx- KLLKLPKKLLKLLK [Mtx-KL-L6P]
MIC [μM] Against E. coli [1]: 5.0 µM

CC(C)Cc1ccc([C@H](C)C(=O)O)cc1 [(S)-ibuprofen]
MIC [4, 9]: 12000 µM
MIC [4, 10]: 12000 µM
MIC (μM) against E. coli ATCC, combination of two compounds ([4]; KL-L9P + (S)-ibuprofen): 420 µM
MIC (μM) against E. coli ATCC, combination of 3 compounds ([4]; KL-L9P + colistin + (S)-ibuprofen): 98 µM
MIC (μM) against E. coli ATCC, combination of two compounds ([4]; colistin + (S)-ibuprofen): 830 µM
MIC of combination (μM): antibiotic [4]: 416.67 µM
FICI of drug with KL-L9P [4]: 0.23
FICIKL-L9P [4]: 0.20
FICIantibiotic [4]: 0.03

CC(=O)Oc1ccccc1C(=O)O [aspirin]
synergy with KL-L9P [4]: not synergistic
MIC [4, 10]: 519 µM
MIC of combination (μM): antibiotic [4]: 479.17 µM
FICI of drug with KL-L9P [4]: 1.59
FICIKL-L9P [4]: 0.66
FICIantibiotic [4]: 0.92

COc1ccc2cc3[n+](cc2c1OC)CCc1cc2c(cc1-3)OCO2 [berberine]
synergy with KL-L9P [4]: not synergistic
MIC [4, 10]: 298 µM
MIC of combination (μM): antibiotic [4]: 273.15 µM
FICIKL-L9P [4]: 0.53
FICIantibiotic [4]: 0.92

KLAKLLKKPLKLLK [KL-L3AL9P]
MIC [μM] Against E. coli [1]: 27 µM
FICI Against E. coli, Colistin & 1/2 MIC peptide ([2]; Table 15, Leu-Ala scanning): 0.70
FICI Against E. coli, Colistin & 1/4 MIC peptide ([2]; Table 15, Leu-Ala scanning): 0.55

ALLKLLKKPLKLLK [KL-L9P/K1A]
FICI Against E. coli, Colistin & 1/2 MIC peptide [2, 5]: 0.71

Mtx- LKKLLKLPKKLLKL [Mtx-LK-L8P]
MIC [μM] Against E. coli [1]: 5.0 µM

KLLKLLKKPAKLLK [KL-L9PL10A]
MIC [μM] Against E. coli [1]: 40 µM
increase of FICI value with colistin when peptide changed from 1/4 MIC to 1/2 MIC [2]: 0.31
FICI Against E. coli, Colistin & 1/2 MIC peptide ([2]; Table 15, Leu-Ala scanning): 0.80
FICI Against E. coli, Colistin & 1/4 MIC peptide ([2]; Table 15, Leu-Ala scanning): 0.49

Mtx- KLLKLLKKPLKLLK [Mtx-KL-L9P]
MIC [μM] Against E. coli [1]: 5.0 µM

COc1cc(/C=C/C(=O)CC(=O)/C=C/c2ccc(O)c(OC)c2)ccc1O [curcumin]
MIC [4, 9]: 300 µM
MIC [4, 10]: 396 µM
MIC (μM) against E. coli ATCC, combination of 3 compounds ([4]; KL-L9P + colistin + curcumin): 20 µM
MIC (μM) against E. coli ATCC, combination of two compounds ([4]; KL-L9P + curcumin): 79 µM
MIC (μM) against E. coli ATCC, combination of two compounds ([4]; colistin + curcumin): 83 µM
MIC of combination (μM): antibiotic [4]: 78.70 µM
FICI of drug with KL-L9P [4]: 0.30
FICIKL-L9P [4]: 0.10
FICIantibiotic [4]: 0.20
MIC of drug with 1 μM KL-L9P ([4]; with 1 μM of KL-L9P): 4 µM
dilution of MIC relative to drug alone ([4]; with 1 μM of KL-L9P): about 330 fold

N[C@@H]1CONC1=O [D-cycloserine]
synergy with KL-L9P [4]: not synergistic

KLR8KLLKKPLS5LLK [st 3, 11]
MIC of combination (μM): antibiotic (colistin) [4]: 0.12 µM
FICI of peptide with colistin ([4]; labelled peptide + colistin): 0.86
FICIPeptide ([4]; labelled peptide + colistin): 0.59
FICIcolistin / FICIantibiotic ([4]; labelled peptide + colistin): 0.27
FICI of peptide with colistin and linezolid [4, 6]: 0.70
FICIPeptide [4, 6]: 0.11
FICIcolistin [4, 6]: 0.25
FICIlinezolid [4, 6]: 0.33
MIC of peptide [4]: 2.5 µM
MIC of combination (μM): peptide [4, 7]: 0.61 µM
MIC of combination (μM): colistin [4, 8]: 0.060 µM
MIC of combination (μM): linezolid [4, 8]: 15 µM
MIC of combination (μM): peptide [4, 8]: 0.30 µM
MIC [μM] Against E. coli [1]: 2.5 µM

KLLKLLKKPLALLK [KL-L9P/K11A]
FICI Against E. coli, Colistin & 1/2 MIC peptide [2, 5]: 1.25

KLLALLKKPLKLLK [KL-L9P/K4A]
FICI Against E. coli, Colistin & 1/2 MIC peptide [2, 5]: 0.79

Reference: patent US20180339016A1 (priority 2015, published 2018)
